Results as given in BigSolDB 2.1.

O=C(O)CCCCCCCCCCC(=O)O
solubility (mole fraction)
Conditions | 288.15 K | 293.15 K | 298.15 K | 303.15 K | 308.15 K | 313.15 K | 318.15 K | 323.15 K | 328.15 K
in acetic acid | 0.00316 | 0.00434 | 0.00581 | 0.00776 | 0.0103 | 0.0136 | 0.0179 | 0.0235 | 0.0306
in acetone | 0.00286 | 0.00402 | 0.00543 | 0.00757 | 0.00995 | 0.0133 | 0.0178 | 0.0238 | 0.0318
in ethanol | 0.00793 | 0.0105 | 0.0138 | 0.0181 | 0.0236 | 0.0305 | 0.0394 | 0.0506 | 0.0648
in ethyl acetate | 0.00115 | 0.00165 | 0.00231 | 0.00327 | 0.00461 | 0.00638 | 0.00879 | 0.0121 | 0.0165
